# Values joined by “and” are separate entries in the source; they are usually repeats but may differ in a detail not shown here. Equal values may be shown once.
# Columns and labels:
# MLL4 [1] = assay: Radioisotope-based methyltransferase assay (selectivity); settings: MLL4, 1 μM SAM
# PRMT7 = PRMT7 (Homo sapiens, UniProt Q9NVM4)
# [2] = Cell viability assay (WST-8), HUDEP-2; type: cell-based, human; settings: human, HUDEP-2 cells, control (0 μM) = 100
# Method: (§1) A WST-8 (2-(2-methoxy-4-nitrophenyl)-3-(4-nitrophenyl)-5-(2,4-disulfophenyl)-2H-tetrazolium) assay using a Cell Counting Kit-8 (DOJINDO) was performed to measure cell viability using an EnSpire microplate reader (PerkinElmer).
# HUDEP-2 cells = assay: Cell viability assay (WST-8), HUDEP-2; type: cell-based, human; settings: for cell viability in HUDEP-2 cells: control (0 μM) = 100
# Method: as §1
# PRMT5/MEP50 [3] = target: T1, PRMT5/MEP50 (Homo sapiens, UniProt O14744); assay: biochemical
# T1 sequence (O14744 whole entry): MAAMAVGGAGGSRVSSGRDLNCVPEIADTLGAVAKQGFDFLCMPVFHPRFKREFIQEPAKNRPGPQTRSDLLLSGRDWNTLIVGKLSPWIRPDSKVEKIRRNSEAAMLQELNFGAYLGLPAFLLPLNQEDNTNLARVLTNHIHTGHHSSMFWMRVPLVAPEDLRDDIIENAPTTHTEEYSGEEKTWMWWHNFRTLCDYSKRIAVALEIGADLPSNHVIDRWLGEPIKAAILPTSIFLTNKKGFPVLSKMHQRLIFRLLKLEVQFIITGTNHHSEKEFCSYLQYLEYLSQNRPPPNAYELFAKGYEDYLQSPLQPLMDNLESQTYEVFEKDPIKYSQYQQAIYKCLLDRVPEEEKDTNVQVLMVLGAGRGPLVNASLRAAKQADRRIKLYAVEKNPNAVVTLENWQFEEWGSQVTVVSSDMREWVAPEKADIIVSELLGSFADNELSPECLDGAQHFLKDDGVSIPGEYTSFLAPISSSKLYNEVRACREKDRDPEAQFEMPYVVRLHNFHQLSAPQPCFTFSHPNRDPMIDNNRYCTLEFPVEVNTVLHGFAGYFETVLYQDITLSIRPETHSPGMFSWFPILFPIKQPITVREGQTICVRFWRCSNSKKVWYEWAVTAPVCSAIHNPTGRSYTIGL
# T1 sequence (Q9BQA1 whole entry partner): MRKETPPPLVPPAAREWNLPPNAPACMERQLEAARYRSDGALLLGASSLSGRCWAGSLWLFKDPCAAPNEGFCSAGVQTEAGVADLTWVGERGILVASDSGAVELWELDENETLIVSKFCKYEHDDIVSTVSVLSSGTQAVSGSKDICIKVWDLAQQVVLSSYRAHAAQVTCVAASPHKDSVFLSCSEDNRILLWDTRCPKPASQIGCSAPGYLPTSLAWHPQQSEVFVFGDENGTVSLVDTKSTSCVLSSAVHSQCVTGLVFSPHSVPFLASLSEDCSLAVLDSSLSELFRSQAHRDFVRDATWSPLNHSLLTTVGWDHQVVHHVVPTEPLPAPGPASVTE
# DNMT1 = DNMT1 (Homo sapiens, UniProt P26358); assay: Radioisotope-based methyltransferase assay (selectivity); settings: IC50, DNMT1, 1 μM SAM
# PRMT6 = PRMT6 (Homo sapiens, UniProt Q96LA8)
# PRMT6, sequence (Q96LA8 whole entry): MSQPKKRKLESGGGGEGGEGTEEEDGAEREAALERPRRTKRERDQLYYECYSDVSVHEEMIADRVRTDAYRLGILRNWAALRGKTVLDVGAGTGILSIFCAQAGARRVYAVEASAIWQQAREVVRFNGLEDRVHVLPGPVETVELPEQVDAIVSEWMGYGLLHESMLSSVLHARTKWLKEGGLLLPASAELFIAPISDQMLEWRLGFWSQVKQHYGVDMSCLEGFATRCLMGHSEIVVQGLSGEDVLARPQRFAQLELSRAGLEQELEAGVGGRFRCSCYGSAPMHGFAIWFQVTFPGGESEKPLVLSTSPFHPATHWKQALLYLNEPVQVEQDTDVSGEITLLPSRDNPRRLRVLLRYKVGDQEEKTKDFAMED
# PRMT5/MEP50 [4] = target: T1, PRMT5/MEP50; assay: Radioisotope-based methyltransferase assay (selectivity)
# MLL4 [5] = target: MLL4 (Homo sapiens, UniProt Q9UMN6); assay: as above; settings: MLL4, 1 μM SAM
# MLL4 (Homo sapiens, UniProt Q9UMN6), sequence (Q9UMN6 2490-2715): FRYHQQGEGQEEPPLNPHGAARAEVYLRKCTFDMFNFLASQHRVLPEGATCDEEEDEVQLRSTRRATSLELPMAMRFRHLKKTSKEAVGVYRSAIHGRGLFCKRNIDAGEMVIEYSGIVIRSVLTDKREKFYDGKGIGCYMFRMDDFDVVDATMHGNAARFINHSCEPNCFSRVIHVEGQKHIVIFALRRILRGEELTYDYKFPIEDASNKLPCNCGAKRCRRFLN
# MLL4 (Homo sapiens, UniProt Q9UMN6), sequence (Q9UBL3 whole entry, further chain): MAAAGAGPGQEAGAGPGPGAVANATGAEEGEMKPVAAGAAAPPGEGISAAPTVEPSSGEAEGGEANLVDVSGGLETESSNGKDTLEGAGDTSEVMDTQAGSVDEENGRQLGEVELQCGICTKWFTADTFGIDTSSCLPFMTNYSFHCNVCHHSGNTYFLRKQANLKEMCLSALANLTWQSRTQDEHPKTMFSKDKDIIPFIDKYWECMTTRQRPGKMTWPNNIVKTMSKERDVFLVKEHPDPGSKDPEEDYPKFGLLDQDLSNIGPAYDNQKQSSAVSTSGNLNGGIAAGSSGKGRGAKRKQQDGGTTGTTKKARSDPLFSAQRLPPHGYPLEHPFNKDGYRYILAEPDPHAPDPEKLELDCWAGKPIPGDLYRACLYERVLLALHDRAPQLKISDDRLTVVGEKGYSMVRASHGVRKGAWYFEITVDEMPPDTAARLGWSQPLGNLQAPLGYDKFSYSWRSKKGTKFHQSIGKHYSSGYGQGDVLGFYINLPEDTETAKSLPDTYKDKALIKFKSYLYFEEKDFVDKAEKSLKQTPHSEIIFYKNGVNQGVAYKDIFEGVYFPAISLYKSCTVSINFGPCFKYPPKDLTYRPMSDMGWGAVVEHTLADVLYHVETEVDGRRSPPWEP
# MLL4 (Homo sapiens, UniProt Q9UMN6), sequence (Q9C005 whole entry, further chain): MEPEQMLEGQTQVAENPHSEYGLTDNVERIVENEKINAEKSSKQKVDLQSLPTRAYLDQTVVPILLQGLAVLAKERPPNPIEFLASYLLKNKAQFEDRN
# MLL4 (Homo sapiens, UniProt Q9UMN6), sequence (Q15291 whole entry, further chain): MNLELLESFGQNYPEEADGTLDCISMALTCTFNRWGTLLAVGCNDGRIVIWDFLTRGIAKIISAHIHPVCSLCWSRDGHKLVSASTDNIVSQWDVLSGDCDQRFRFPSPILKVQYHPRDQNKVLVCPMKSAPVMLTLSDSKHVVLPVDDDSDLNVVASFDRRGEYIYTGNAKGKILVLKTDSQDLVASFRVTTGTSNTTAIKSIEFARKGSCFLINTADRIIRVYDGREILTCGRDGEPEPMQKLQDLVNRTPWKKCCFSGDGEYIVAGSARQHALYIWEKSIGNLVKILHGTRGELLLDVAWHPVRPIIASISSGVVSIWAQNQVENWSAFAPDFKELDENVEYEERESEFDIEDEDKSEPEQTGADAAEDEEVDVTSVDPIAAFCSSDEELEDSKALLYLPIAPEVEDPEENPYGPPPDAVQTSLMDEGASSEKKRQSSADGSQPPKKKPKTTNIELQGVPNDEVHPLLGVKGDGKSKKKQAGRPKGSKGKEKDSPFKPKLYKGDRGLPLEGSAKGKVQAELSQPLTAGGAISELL
# MLL4, sequence (Q9UMN6 2490-2715): as the sequence (Q9UMN6 2490-2715) above
# MLL4, sequence (Q9UBL3 whole entry, further chain): as the sequence (Q9UBL3 whole entry, further chain) above
# MLL4, sequence (Q9C005 whole entry, further chain): as the sequence (Q9C005 whole entry, further chain) above
# MLL4, sequence (Q15291 whole entry, further chain): as the sequence (Q15291 whole entry, further chain) above
# PRMT7, sequence (Q9NVM4 whole entry): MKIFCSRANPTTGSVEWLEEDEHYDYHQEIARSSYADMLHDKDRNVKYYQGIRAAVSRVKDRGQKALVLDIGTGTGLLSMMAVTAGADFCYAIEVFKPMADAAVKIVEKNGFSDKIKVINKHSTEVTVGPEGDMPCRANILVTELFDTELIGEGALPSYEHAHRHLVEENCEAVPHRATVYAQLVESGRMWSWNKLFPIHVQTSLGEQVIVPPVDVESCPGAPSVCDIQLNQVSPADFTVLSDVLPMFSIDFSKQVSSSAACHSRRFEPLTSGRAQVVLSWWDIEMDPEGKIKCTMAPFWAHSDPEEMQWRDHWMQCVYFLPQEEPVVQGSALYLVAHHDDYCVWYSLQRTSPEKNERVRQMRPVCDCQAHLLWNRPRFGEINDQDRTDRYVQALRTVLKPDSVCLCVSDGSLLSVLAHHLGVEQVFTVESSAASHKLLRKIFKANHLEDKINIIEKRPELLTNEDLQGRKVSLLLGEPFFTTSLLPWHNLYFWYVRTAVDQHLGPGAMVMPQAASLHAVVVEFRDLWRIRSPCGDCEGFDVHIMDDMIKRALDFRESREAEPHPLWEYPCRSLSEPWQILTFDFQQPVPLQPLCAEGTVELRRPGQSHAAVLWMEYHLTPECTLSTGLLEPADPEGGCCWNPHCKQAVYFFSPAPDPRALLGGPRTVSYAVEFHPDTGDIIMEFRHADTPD
smiles,measurement,setting,value
Cc1c(C(=O)NC(CCC2CC2)C(=O)Nc2ccc(C#N)cc2)[nH]c2c1C(=O)CC(C)(C)C2 (stereo not shown) [RK-701],IC50,MLL4 [1],> 100 µM
same,IC50,PRMT7,> 100 µM
same,viability at 0.0137174 μM,[2]; 0.0137174 μM,99.9%
same,viability at 0.123457 μM,[2]; 0.123457 μM,97.4%
same,viability at 0.37037 μM,[2]; 0.37037 μM,99.9%
same,viability at 1.11111 μM,[2]; 1.11111 μM,105%
same,viability at 3.33333 μM,[2]; 3.33333 μM,94.3%
same,viability at 10 μM,[2]; 10 μM,77.4%
same,cell viability in HUDEP-2 cells,HUDEP-2 cells; 0.00457247 μM,120.908 and 97.8824 and 118.228
same,cell viability in HUDEP-2 cells,HUDEP-2 cells; 0.0137174 μM,97.2549 and 110.051
same,cell viability in HUDEP-2 cells,HUDEP-2 cells; 0.0411523 μM,112.451 and 91.2941 and 106.985
same,cell viability in HUDEP-2 cells,HUDEP-2 cells; 0.123457 μM,96.9412 and 105.622
same,cell viability in HUDEP-2 cells,HUDEP-2 cells; 0.37037 μM,97.8824 and 103.918
same,cell viability in HUDEP-2 cells,HUDEP-2 cells; 1.11111 μM,96.3137 and 96.4225
same,cell viability in HUDEP-2 cells,HUDEP-2 cells; 3.33333 μM,88.1569 and 84.8382
same,cell viability in HUDEP-2 cells,HUDEP-2 cells; 10 μM,78.4314 and 79.046
same,cytotoxic effect on viability,"HUDEP-2 cells; HUDEP-2, 3 days",essentially no cytotoxic effect
same,IC50,PRMT5/MEP50 [3],> 100 µM
same,IC50,DNMT1,> 100 µM
same,IC50,PRMT6,> 100 µM
same,IC50,PRMT5/MEP50 [4],> 100 µM
"Nc1ncnc2c1ncn2[C@@H]1O[C@H](CSCC[C@H](N)C(=O)O)[C@@H](O)[C@H]1O [SAH, S-(5'-Adenosyl)-L-homocysteine, reference compound]",IC50,MLL4 [5],1.1 µM

# From paper PMC9837035 (Nature Communications, 2023)
